Measurements from PubChem BioAssay (NCI).
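Interpolation was linear, between the two tested concentrations surrounding the appropriate level; five concentrations were tested over 48 hours in 96-well plates. The concentration for 50% growth inhibition is given as GI50. TGI denotes the concentration required for complete inhibition of growth.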

Assays:
Assay in all cases: inhibition of tumour cell growth, NCI panel, 48 h
SK-MEL-2 melanoma = system: SK-MEL-2 melanoma
NCI-H522 lung = system: NCI-H522 lung
MDA-MB-231 breast = system: MDA-MB-231 breast
SN12C renal = system: SN12C renal
UACC-62 melanoma = system: UACC-62 melanoma
SF-295 CNS = system: SF-295 CNS
HCC-2998 colon = system: HCC-2998 colon
IGROV1 ovarian = system: IGROV1 ovarian
PC-3 prostate = system: PC-3 prostate
COLO 205 colon = system: COLO 205 colon
OVCAR-5 ovarian = system: OVCAR-5 ovarian
T-47D breast = system: T-47D breast
UO-31 renal = system: UO-31 renal
NCI-H23 lung = system: NCI-H23 lung
MALME-3M melanoma = system: MALME-3M melanoma
KM12 colon = system: KM12 colon
RXF 393 renal = system: RXF 393 renal
CAKI-1 renal = system: CAKI-1 renal
A498 renal = system: A498 renal
NCI-H226 lung = system: NCI-H226 lung
RPMI-8226 leukemia = system: RPMI-8226 leukemia
SR leukemia = system: SR leukemia
MOLT-4 leukemia = system: MOLT-4 leukemia
UACC-257 melanoma = system: UACC-257 melanoma
SF-268 CNS = system: SF-268 CNS
EKVX NSCLC = system: EKVX NSCLC
HOP-92 NSCLC = system: HOP-92 NSCLC
SW-620 colon = system: SW-620 colon
CCRF-CEM leukemia = system: CCRF-CEM leukemia
M14 melanoma = system: M14 melanoma
SF-539 CNS = system: SF-539 CNS
HS 578T breast = system: HS 578T breast
HCT-116 colon = system: HCT-116 colon
OVCAR-3 ovarian = system: OVCAR-3 ovarian
TK-10 renal = system: TK-10 renal
DU-145 prostate = system: DU-145 prostate
MDA-MB-435 = system: MDA-MB-435
HT29 colon = system: HT29 colon
U251 CNS = system: U251 CNS
LOX IMVI melanoma = system: LOX IMVI melanoma
K-562 leukemia = system: K-562 leukemia
SK-OV-3 ovarian = system: SK-OV-3 ovarian
MCF7 breast = system: MCF7 breast
NCI-H460 lung = system: NCI-H460 lung
SNB-75 CNS = system: SNB-75 CNS
SK-MEL-28 melanoma = system: SK-MEL-28 melanoma
786-0 renal = system: 786-0 renal
BT-549 breast = system: BT-549 breast
OVCAR-8 ovarian = system: OVCAR-8 ovarian
ACHN renal = system: ACHN renal
A549 NSCLC = system: A549 NSCLC
HCT-15 colon = system: HCT-15 colon
MDA-MB-468 breast = system: MDA-MB-468 breast
HL-60(TB) leukemia = system: HL-60(TB) leukemia
HOP-62 NSCLC = system: HOP-62 NSCLC
SK-MEL-5 melanoma = system: SK-MEL-5 melanoma
NCI/ADR-RES ovarian = system: NCI/ADR-RES ovarian
SNB-19 CNS = system: SNB-19 CNS
OVCAR-4 ovarian = system: OVCAR-4 ovarian

N#C/C(=C\c1ccc(N(c2ccccc2)c2ccccc2)cc1)C(N)=O
GI50 (SK-MEL-2 melanoma): 29 µM
TGI (SK-MEL-2 melanoma): > 100 µM
GI50 (NCI-H522 lung): > 78.9 µM
TGI (NCI-H522 lung): > 100 µM
GI50 (MDA-MB-231 breast): > 72.5 µM
TGI (MDA-MB-231 breast): > 100 µM
GI50 (SN12C renal): > 77.1 µM
TGI (SN12C renal): > 100 µM
GI50 (UACC-62 melanoma): 0.308 µM
TGI (UACC-62 melanoma): 1.37 µM
GI50 (SF-295 CNS): 7.24 µM
TGI (SF-295 CNS): > 100 µM
GI50 (HCC-2998 colon): > 64.1 µM
TGI (HCC-2998 colon): > 100 µM
GI50 (IGROV1 ovarian): 0.946 µM
TGI (IGROV1 ovarian): 4.64 µM
GI50 (PC-3 prostate): > 69.8 µM
TGI (PC-3 prostate): > 100 µM
GI50 (COLO 205 colon): 15.3 µM
TGI (COLO 205 colon): > 100 µM
GI50 (OVCAR-5 ovarian): 1.12 µM
TGI (OVCAR-5 ovarian): 3.07 µM
GI50 (T-47D breast): 1.06 µM
TGI (T-47D breast): 5.27 µM
GI50 (UO-31 renal): 25.7 µM
TGI (UO-31 renal): > 100 µM
GI50 (NCI-H23 lung): 15.3 µM
TGI (NCI-H23 lung): > 100 µM
GI50 (MALME-3M melanoma): 42.9 µM
TGI (MALME-3M melanoma): > 100 µM
GI50 (KM12 colon): > 100 µM
TGI (KM12 colon): > 100 µM
GI50 (RXF 393 renal): 1.33 µM
TGI (RXF 393 renal): 20.3 µM
GI50 (CAKI-1 renal): 0.308 µM
TGI (CAKI-1 renal): 2.48 µM
GI50 (A498 renal): 1.11 µM
TGI (A498 renal): 2.61 µM
GI50 (NCI-H226 lung): 0.24 µM
TGI (NCI-H226 lung): 0.989 µM
GI50 (RPMI-8226 leukemia): 12.4 µM
TGI (RPMI-8226 leukemia): > 100 µM
GI50 (SR leukemia): > 100 µM
TGI (SR leukemia): > 100 µM
GI50 (MOLT-4 leukemia): > 100 µM
TGI (MOLT-4 leukemia): > 100 µM
GI50 (UACC-257 melanoma): 0.839 µM
TGI (UACC-257 melanoma): 3.53 µM
GI50 (SF-268 CNS): 67.3 µM
TGI (SF-268 CNS): > 100 µM
GI50 (EKVX NSCLC): > 100 µM
TGI (EKVX NSCLC): > 100 µM
GI50 (HOP-92 NSCLC): 29.7 µM
TGI (HOP-92 NSCLC): > 92.4 µM
GI50 (SW-620 colon): 8.69 µM
TGI (SW-620 colon): > 100 µM
GI50 (CCRF-CEM leukemia): > 100 µM
TGI (CCRF-CEM leukemia): > 100 µM
GI50 (M14 melanoma): > 100 µM
TGI (M14 melanoma): > 100 µM
GI50 (SF-539 CNS): 68 µM
TGI (SF-539 CNS): > 100 µM
GI50 (HS 578T breast): 38.4 µM
TGI (HS 578T breast): > 100 µM
GI50 (HCT-116 colon): 0.758 µM
TGI (HCT-116 colon): > 100 µM
GI50 (OVCAR-3 ovarian): 4.6 µM
TGI (OVCAR-3 ovarian): > 95.9 µM
GI50 (TK-10 renal): 0.797 µM
TGI (TK-10 renal): 3.92 µM
GI50 (DU-145 prostate): > 100 µM
TGI (DU-145 prostate): > 100 µM
GI50 (MDA-MB-435): > 100 µM
TGI (MDA-MB-435): > 100 µM
GI50 (HT29 colon): 16.9 µM
TGI (HT29 colon): > 100 µM
GI50 (U251 CNS): 2.99 µM
TGI (U251 CNS): > 100 µM
GI50 (LOX IMVI melanoma): > 89 µM
TGI (LOX IMVI melanoma): > 100 µM
GI50 (K-562 leukemia): 43.9 µM
TGI (K-562 leukemia): > 100 µM
GI50 (SK-OV-3 ovarian): 25.3 µM
TGI (SK-OV-3 ovarian): > 100 µM
GI50 (MCF7 breast): 0.661 µM
TGI (MCF7 breast): > 100 µM
GI50 (NCI-H460 lung): 1.74 µM
TGI (NCI-H460 lung): > 67.2 µM
GI50 (SNB-75 CNS): 19.8 µM
TGI (SNB-75 CNS): > 93.9 µM
GI50 (SK-MEL-28 melanoma): > 100 µM
TGI (SK-MEL-28 melanoma): > 100 µM
GI50 (786-0 renal): 18 µM
TGI (786-0 renal): > 92.1 µM
GI50 (BT-549 breast): > 100 µM
TGI (BT-549 breast): > 100 µM
GI50 (OVCAR-8 ovarian): 35.1 µM
TGI (OVCAR-8 ovarian): > 100 µM
GI50 (ACHN renal): 64.4 µM
TGI (ACHN renal): > 100 µM
GI50 (A549 NSCLC): 22.7 µM
TGI (A549 NSCLC): > 100 µM
GI50 (HCT-15 colon): > 100 µM
TGI (HCT-15 colon): > 100 µM
GI50 (MDA-MB-468 breast): 0.145 µM
TGI (MDA-MB-468 breast): 0.351 µM
GI50 (HL-60(TB) leukemia): > 100 µM
TGI (HL-60(TB) leukemia): > 100 µM
GI50 (HOP-62 NSCLC): 3.9 µM
TGI (HOP-62 NSCLC): 31.5 µM
GI50 (SK-MEL-5 melanoma): 11 µM
TGI (SK-MEL-5 melanoma): > 100 µM
GI50 (NCI/ADR-RES ovarian): 21.6 µM
TGI (NCI/ADR-RES ovarian): > 100 µM
GI50 (SNB-19 CNS): 37.3 µM
TGI (SNB-19 CNS): > 100 µM
GI50 (OVCAR-4 ovarian): 2.28 µM
TGI (OVCAR-4 ovarian): 16.1 µM
